Source: patent US20090220996A1, “In vitro Assay Methods for Classifying Embryotoxicity of Compounds” (RELIANCE LIFE SCIENCES PVT LTD., priority 2007, published 2009)
Like-named read-outs stand apart in the source and are kept apart here.

Tests used:
[1] = test system: lineage marker gene expression in hEBs; test: Gene expression profile of day 15 hEBs (RT-PCR, densitometry) and ID50; type: cell-based, human; details: for lineage markers down-regulated / affected: summary statement, hEBs
Protocol: On the 15th day, differentiated cells that are adherent are washed with 2 ml DPBS and trypsinized (0.05%) from 24 well plates and collected in a tube. The tube is centrifuged at 2000 rpm for 10 minutes to pellet the cells. The total RNA is isolated using TRIzol (Invitrogen Corporation) following the manufacturer's instructions. The RNA is quantified by absorbance at 260 nm, and 1-2 μg of RNA from control and drug treated cells are converted to cDNA using Superscript cDNA synthesis kit (Invitrogen Corporation) following the manufacturer's instructions. cDNA was used to study the expression of genes specific for ectoderm, mesoderm, and endoderm, by an appropriate method, such as RT-PCR, qPCR, or microarray. Markers indicative of each lineage are used.
The changes in gene expression in the presence or absence of the drug are compared. Changes in a mesodermal marker representative of cardiogenesis is used to calculate ID50 values of the tested compounds, and densitometry of the band intensities from RT-PCR, or CT values from qPCR, are used to calculate the ID50 values.
Various compounds were tested for their effect on the gene expression profiles of homeobox transcription factor Nanog (“NANOG”; GenBank Accession Number AB093576), neurofilament, heavy polypeptide 200 KDa (“NEFH” or “NFH”; GenBank Accession Number X15307), keratin-15 (“KRT15”; GenBank Accession Number X07696), actin, alpha, cardiac muscle (“ACTC1”; GenBank Accession Number NM_005159), msh homeobox 1 (“MSX1”; GenBank Accession Number BC067353), CD34 molecule (“CD34”; GenBank Accession Number BC039146), alpha fetoprotein (“AFP”; GenBank Accession Number J00077), serum albumin (“ALB”; GenBank Accession Number M12523), bone morphogenetic protein 4 (“BMP4”; GenBank Accession Number NM_130850), and bone morphogenetic protein 5 (“BMP5”; GenBank Accession Number M60314) in hEBs. Glyceraldehyde-3-phosphate dehydrogenase (“GAPDH”; GenBank Accession Number J04038) was used as a control.
RNA was extracted from different drug treated groups using the trizol method. One microgram of RNA was converted to cDNA using superscript reverse transcriptase. PCR was performed with the initial denaturation cycle at 94° C. for 5 min, followed by 35 cycles of 94° C. for 30 seconds, annealing temperature varying (Table 1) for 30 seconds, 72° C. for 1 minute, followed final extension at 72° C. for 5 min. Electrophoresis was performed on 1.5% agarose gels. Paired comparisons were conducted using a paired t test, and all data are presented as mean values±S.E. Differences were considered significant at a 0.05 level of confidence.
For calculating IC50-hES and ID50-hES cells, one petri dish was used per concentration of the test chemical, as well as for the untreated control (assay medium) and the solvent control. The lid was turned carefully to its regular position and put on top of a petri dish filled with 5 ml PBS. […] The changes in gene expression in the presence or absence of the drug were compared. Changes in mesodermal marker representative of cardiogenesis was used to calculate ID50 values of the tested compounds, and the densitometry of the band intensities performed in case of RT-PCR, or CT values in case of qPCR, were used to calculate the ID50 values.

[2] = test system: 3T3 (mouse fibroblast cell line); details: Table 4; from the EST (Genschow, et al., 2000); cited from earlier work
[3] = cited from earlier work
[4] = Table 5; cited from earlier work
mouse ES cells = details: Table 4; from the EST (Genschow, et al., 2000); cited from earlier work
hES, hEBs and HFF = test: CyQUANT/survival cytotoxicity, cell type not given; type: cell-based, human; details: cell type not stated; for cell survival: CyQUANT
Protocol: Cytotoxicity analysis of three cell types (hES, hEBs and HFF) was evaluated using the CyQUANT assay following compound treatment. All data were the mean of three independent experiments for each cell type. Data is represented as the mean±SE.

[5] = 0.1 μg/ml, day 15 hEBs, FIG. 5B

Row | SMILES | lineage markers down-regulated / affected [1] | Mouse EST IC50 - 3T3 [2] [µg/mL] | Therap. range in human serum [3] [µg/mL] | Effects on fetus [4] | General toxicity [4] | Mouse EST IC50 - mES (mouse ES cells) [µg/mL] | also measured
1 | O=c1[nH]cc(F)c(=O)[nH]1 [5-Fluorouracil, 5-fluorouracil] | all the three lineage markers are effected |  |  |  |  |  | down-regulation of ALB gene expression ([1]; 0.001 μg/ml, day 15 hEBs, FIG. 5B): 40%; decrease in NFH levels ([1]; 0.01 μg/ml, day 15 hEBs, FIG. 5B): 60%; down-regulation of AFP gene expression [1, 5]: 80%; down-regulation of MSX1 expression [1, 5]: 15%; down-regulation of NANOG expression [1, 5]: 25%; gene expression levels of ACTC1, KRT, CD34, BMP4, and BMP5 ([1]; 0.0001-0.1 μg/ml, day 15 hEBs, FIG. 5B): no change
2 | CS(=O)(=O)OCCCCOS(C)(=O)=O [Busulfan, busulfan] |  | 4.8 | <0.6 | Reproductive | Hematopoietic | 2.1 | Therap. range in human serum ([3]; listed as busulfan): less than 0.6 μg/ml
3 | Cn1c(=O)c2c(ncn2C)n(C)c1=O [Caffeine, caffeine] |  |  |  |  | Cardiac, CNS |  | cell survival percentage compared to controls (hES, hEBs and HFF; 50 μg/ml, FIG. 3B): significant decrease; cell survival (hES, hEBs and HFF; 500 μg/ml, FIG. 4C): 20%; decrease of AFP expression ([1]; 50 μg/ml, day 15 hEBs, FIG. 6B): 80%; decrease of NFH expression ([1]; 50 μg/ml, day 15 hEBs, FIG. 6B): 80%; decrease of keratin expression ([1]; 50 μg/ml, day 15 hEBs, FIG. 6B): 85%; decrease of ACTC1 expression ([1]; 500 μg/ml, day 15 hEBs, FIG. 6B): 40%; expression levels of NANOG, CD34, BMP4, MSX1, and BMP5 ([1]; day 15 hEBs, FIG. 6B): no significant change
4 | NC(=O)NO [Hydroxyurea, hydroxyurea] |  | 7.2 | <9.88 |  |  | 2.0 | 
5 | COc1ccc2c(c1)c(CC(=O)O)c(C)n2C(=O)c1ccc(Cl)cc1 [Indomethacin, indomethacin] |  | 27 |  |  | Cardiac, Renal | 29 | cell survival (hES, hEBs and HFF; 100 μg/ml, FIG. 4D): 20-30%
6 | CC1(C)S[C@@H]2[C@H](NC(=O)Cc3ccccc3)C(=O)N2[C@H]1C(=O)O [Penicillin G, penicillin G] | only endodermal markers are down-regulated | 1586 | 300 to 500 | None in Humans | Hypersensitivity | 2950 | ALB levels ([1]; 10 μg/ml, day 15 hEBs, FIG. 7): decreased; AFP levels decreased to ([1]; 100 μg/ml, day 15 hEBs, FIG. 7): 40%; markers of ectoderm, mesoderm, and endoderm other than AFP and ALB ([1]; day 15 hEBs, FIG. 7A): no significant change; expression of AFP and ALB ([1]; highest dose (5000 μg/ml), day 15 hEBs, FIG. 7B): complete loss of expression
